Measurements reported in article PMC6631349 (Xenobiotica; the fate of foreign compounds in biological …, 2014).

Key:
[1] = biological target: T1, UGT1A9 (Homo sapiens, UniProt O60656); assay: UGT1A9 supersomes-catalyzed 4-MU glucuronidation inhibition; settings: 50 μM PC components; recombinant human UGT; mean of triplicate
T1 sequence (O60656 26-530): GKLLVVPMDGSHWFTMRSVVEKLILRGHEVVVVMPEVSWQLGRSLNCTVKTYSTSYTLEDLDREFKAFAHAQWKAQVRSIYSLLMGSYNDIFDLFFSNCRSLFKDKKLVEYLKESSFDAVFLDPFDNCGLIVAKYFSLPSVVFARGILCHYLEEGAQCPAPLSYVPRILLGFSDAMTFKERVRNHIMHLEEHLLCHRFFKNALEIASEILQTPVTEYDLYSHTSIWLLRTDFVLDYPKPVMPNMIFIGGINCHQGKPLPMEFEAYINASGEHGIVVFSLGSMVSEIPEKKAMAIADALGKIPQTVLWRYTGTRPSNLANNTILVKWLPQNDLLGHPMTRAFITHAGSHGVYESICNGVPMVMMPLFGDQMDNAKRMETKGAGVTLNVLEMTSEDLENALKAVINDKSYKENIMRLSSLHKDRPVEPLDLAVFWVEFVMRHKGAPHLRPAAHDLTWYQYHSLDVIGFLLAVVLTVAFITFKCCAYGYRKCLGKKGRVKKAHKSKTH

[2] = biological target: T2, UGT1A6 (Homo sapiens, UniProt P19224); settings: for residual activity 1A6: 50 μM PC components, recombinant human UGT, mean of triplicate
T2 sequence (P19224 27-532): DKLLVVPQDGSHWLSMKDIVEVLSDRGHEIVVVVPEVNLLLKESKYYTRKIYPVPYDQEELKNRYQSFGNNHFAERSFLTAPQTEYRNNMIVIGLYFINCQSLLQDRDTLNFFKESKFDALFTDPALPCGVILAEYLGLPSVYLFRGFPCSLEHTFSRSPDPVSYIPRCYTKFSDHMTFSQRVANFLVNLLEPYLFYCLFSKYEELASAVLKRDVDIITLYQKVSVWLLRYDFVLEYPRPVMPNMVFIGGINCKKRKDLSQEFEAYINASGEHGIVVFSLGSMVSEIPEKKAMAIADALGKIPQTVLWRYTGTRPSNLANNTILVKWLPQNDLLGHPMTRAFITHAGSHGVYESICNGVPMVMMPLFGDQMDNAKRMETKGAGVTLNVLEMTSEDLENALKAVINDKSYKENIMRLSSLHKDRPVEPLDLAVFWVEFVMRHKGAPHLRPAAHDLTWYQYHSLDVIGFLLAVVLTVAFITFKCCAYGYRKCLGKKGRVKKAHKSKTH

[3] = biological target: T3, UGT1A8 (Homo sapiens, UniProt Q9HAW9); settings: 50 μM PC components; recombinant human UGT; mean of triplicate
T3 sequence (Q9HAW9 26-530): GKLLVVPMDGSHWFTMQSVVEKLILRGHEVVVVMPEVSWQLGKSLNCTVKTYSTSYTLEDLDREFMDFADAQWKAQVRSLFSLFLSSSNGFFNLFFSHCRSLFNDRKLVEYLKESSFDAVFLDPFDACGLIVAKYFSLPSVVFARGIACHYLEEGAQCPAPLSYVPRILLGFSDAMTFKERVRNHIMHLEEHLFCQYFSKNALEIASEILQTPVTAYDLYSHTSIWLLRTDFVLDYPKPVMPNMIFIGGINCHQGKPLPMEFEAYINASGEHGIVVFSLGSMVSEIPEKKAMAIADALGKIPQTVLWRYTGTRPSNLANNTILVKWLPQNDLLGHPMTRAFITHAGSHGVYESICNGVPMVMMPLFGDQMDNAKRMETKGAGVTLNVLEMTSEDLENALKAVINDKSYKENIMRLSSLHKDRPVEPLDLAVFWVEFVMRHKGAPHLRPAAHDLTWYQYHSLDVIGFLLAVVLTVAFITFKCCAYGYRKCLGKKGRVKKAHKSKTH

Row | SMILES | residual activity 1A9 [1] [%] | inhibition percentage of UGT1A6 activity ([2]; 50 μM) [%] | residual activity 1A6 [2] [%] | residual activity 1A8 [3] [%]
1 | CCCCCCCCCC(=O)OC[C@H](COP(=O)([O-])OCC[N+](C)(C)C)OC(=O)CCCCCCCCC [PC 10:0, 10:0] | 158 | 76.8 | 23.2 | 59.3
2 | CCCCCCCCCCC(=O)OC[C@H](COP(=O)([O-])OCC[N+](C)(C)C)OC(=O)CCCCCCCCCC [PC 11:0, 11:0] | 97.8 |  | 35.0 | 116.8
3 | CCCCCCCCCCCC(=O)OC[C@H](COP(=O)([O-])OCC[N+](C)(C)C)OC(=O)CCCCCCCCCCC [PC 12:0, 12:0] | 84.1 |  | 40.8 | 114.1
4 | CCCCCCCCCCCCC(=O)OC[C@H](COP(=O)([O-])OCC[N+](C)(C)C)OC(=O)CCCCCCCCCCCC [PC 13:0, 13:0] | 99.2 |  | 56.5 | 114.3
5 | CCCCCCCCCCCCCC(=O)OC[C@H](COP(=O)([O-])OCC[N+](C)(C)C)OC(=O)CCCCCCCCCCCCC [PC 14:0, 14:0] | 86.3 |  | 54.3 | 110.2
6 | CCCCCCCCCCCCCCC(=O)OC[C@H](COP(=O)([O-])OCC[N+](C)(C)C)OC(=O)CCCCCCCCCCCCCC [PC 15:0, 15:0] | 64.7 |  | 55.0 | 105.9
7 | CCCCCCCCCCCCCCCC(=O)OC[C@H](COP(=O)([O-])OCC[N+](C)(C)C)OC(=O)CCCCCCCCCCCCCCC [PC 16:0, 16:0] | 67.5 |  | 53.7 | 107.6
8 | CCCCCCCCCCCCCCCCC(=O)OC[C@H](COP(=O)([O-])OCC[N+](C)(C)C)OC(=O)CCCCCCCCCCCCCCCC [PC 17:0, 17:0] | 65.7 |  | 49.1 | 92.1
9 | CCCCCCCCCCCCCCCCCC(=O)OC[C@H](COP(=O)([O-])OCC[N+](C)(C)C)OC(=O)CCCCCCCCCCCCCCCCC [PC 18:0, 18:0] | 67.7 |  | 50.7 | 84.1
10 | CC/C=C\C/C=C\C/C=C\C/C=C\C/C=C\C/C=C\CCC(=O)O[C@H](COC(=O)CCCCCCCCCCCCCCCCC)COP(=O)([O-])OCC[N+](C)(C)C [PC 18:0, 22:6, 1-stearoyl-2-docosahexaenoyl-sn-glycero-3-phosphocholine] | 94.4 |  | 88.8 | 116.1
11 | CCCCCCCCCCCCCCCCCCC(=O)OC[C@H](COP(=O)([O-])OCC[N+](C)(C)C)OC(=O)CCCCCCCCCCCCCCCCCC [PC 19:0, 19:0] | 42.3 |  | 49.1 | 60.6
12 | CCCCCCCCCCCCCCCCCCCC(=O)OC[C@H](COP(=O)([O-])OCC[N+](C)(C)C)OC(=O)CCCCCCCCCCCCCCCCCCC [PC 20:0, 20:0] | 65.6 |  | 88.2 | 94.9
13 | CCCCCCCCCCCCCCCCCCCCC(=O)OC[C@H](COP(=O)([O-])OCC[N+](C)(C)C)OC(=O)CCCCCCCCCCCCCCCCCCCC [PC 21:0, 21:0] | 38.1 |  | 85.4 | 36.9
14 | CCCCCCCCCCCCCCCCCCCCCC(=O)OC[C@H](COP(=O)([O-])OCC[N+](C)(C)C)OC(=O)CCCCCCCCCCCCCCCCCCCCC [PC 22:0, 22:0] | 43.9 |  | 60.2 | 38.0
15 | CCCCCCCCCCCCCCCCCCCCCCC(=O)OC[C@H](COP(=O)([O-])OCC[N+](C)(C)C)OC(=O)CCCCCCCCCCCCCCCCCCCCCC [PC 23:0, 23:0] | 77.3 |  | 98.9 | 93.5
